Patent publication EP3076175A1, “DETECTION AND QUANTIFICATION OF O-ACETYL-ADP-RIBOSE AS A READOUT SYSTEM FOR MEASURING THE ACTIVITY OF E.G. SIRTUINS” (Boehringer Ingelheim International GmbH, priority 2015, dated 2016)
Like-named read-outs stand apart in the source and are kept apart here.

Tests used:
SIRT1 = biological target: T1, SIRT1 (Homo sapiens, UniProt Q96EB6); test: Macro-domain protein assay for SIRT modulators (detection of generated 2'/3'-O-acetyl-ADP-ribose, donor/acceptor beads); format: biochemical; conditions: 10x SIRT (200 nM), 10 µM compound
T1 construct: made in house; host or cells: E. coli BL21 Star (DE3)
T1 sequence (Q96EB6 183-664): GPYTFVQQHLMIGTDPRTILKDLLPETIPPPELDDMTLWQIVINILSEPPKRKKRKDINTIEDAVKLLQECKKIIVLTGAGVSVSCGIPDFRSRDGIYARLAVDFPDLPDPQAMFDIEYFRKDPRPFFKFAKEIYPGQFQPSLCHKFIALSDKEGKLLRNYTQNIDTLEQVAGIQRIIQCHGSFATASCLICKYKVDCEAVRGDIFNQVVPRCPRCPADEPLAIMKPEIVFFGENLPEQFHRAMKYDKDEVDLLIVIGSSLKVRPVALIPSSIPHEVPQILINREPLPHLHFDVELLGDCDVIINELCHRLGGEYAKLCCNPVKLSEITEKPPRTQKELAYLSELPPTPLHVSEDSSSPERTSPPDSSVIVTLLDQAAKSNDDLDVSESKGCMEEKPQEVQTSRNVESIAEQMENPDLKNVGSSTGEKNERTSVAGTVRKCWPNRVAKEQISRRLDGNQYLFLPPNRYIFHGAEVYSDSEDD
Procedure: 200 nl of test compound in 100% DMSO (final concentration of compound 10 µM; DMSO 1%) is given in the 384-well plates by a Cybio Cybiwell capillary head pipettor.
After that 2 µl of an acetylated peptide (final concentration of 10 µM) mixed with NAD^+ (final concentration of 500 µM, dissolved in assay buffer 1) and 2 µl of SIRT enzyme (final concentration of 20 nM for 1x SIRT (100% CTL) and 200 nM for 10x SIRT (1000% CTL), dissolved in assay buffer 1) are added by a Multidrop combi. After an incubation time of 20 min at room temperature 4 µl biotinylated ADP-ribose (final concentration 50 nM, dissolved in assay buffer 2) and 4 µl GST tagged macro-domain protein (final concentration 50 nM, dissolved in assay buffer 2) are added by a Multidrop combi. After another incubation time of 60 min at room temperature 4 µl of acceptor beads and 4 µl of donor beads (final concentration of each bead-type 20 µg/ml, both dissolved in assay buffer 2) are added by a Multidrop combi. The plates are then sealed and incubated in the dark at room temperature for at least 30 min. After the incubation period, the plates are measured using the Envision reader from Perkin Elmer. […]

GST-tagged AF1521 = biological target: T2, GST-tagged AF1521 (Archaeoglobus fulgidus, UniProt O28751); test: Nucleotide ligand binding assay by isothermal calorimetry (ITC); conditions: for ΔG: change in Gibbs free energy of binding; for ΔS: change in entropy
T2 construct: For the N-terminal GST fusion of AF1521 the gene for residues 1-192 was synthesized; made in house; host or cells: E. coli BL21 Star (DE3) / BL21 Tuner (DE3)
T2 sequence (O28751 1-192): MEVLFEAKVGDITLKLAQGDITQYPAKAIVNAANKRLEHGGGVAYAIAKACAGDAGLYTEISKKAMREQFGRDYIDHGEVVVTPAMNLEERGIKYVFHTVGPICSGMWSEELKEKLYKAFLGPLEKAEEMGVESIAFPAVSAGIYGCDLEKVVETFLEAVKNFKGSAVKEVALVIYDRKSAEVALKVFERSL
Procedure: Nucleotide binding assays were performed using isothermal calorimetry (ITC) on a ITC200 (Microcal) at 25°C. Protein was buffer exchanged using PD10 columns (GE Healthcare) into 50 mM Tris pH 7.5; 150 mM NaCl and 1 mM TCEP. Nucleotides were resuspended in ITC buffer and their concentration were determined through absorbance at 260 nm. Macro-domain proteins were used at 50 µM concentration, whereas the nucleotides were used at 500 µM. ITC measurements were performed by 20 successive injections of 2 µl of the nucleotides into 280 µl of AF1521 with a duration of 4 seconds and 150 seconds of spacing. Data analysis was done using the software ORIGIN 7.0 (Microcal).

[1] = biological target: T3, GST-tagged macro-domain protein (Archaeoglobus fulgidus, UniProt O28751); test: Titration curve: competition with biotinylated ADP-ribose for binding to the macro-domain protein (luminescence signal); conditions: rising concentration of competitor against biotinylated ADP-ribose
T3 construct: For the N-terminal GST fusion of AF1521 the gene for residues 1-192 was synthesized; made in house; host or cells: E. coli BL21 Star (DE3) / BL21 Tuner (DE3)
T3 sequence (O28751 1-192): T2 sequence (O28751 1-192)
Procedure: After that 2 µl of an acetylated peptide (final concentration of 10 µM) mixed with NAD^+ (final concentration of 500 µM, dissolved in assay buffer 1) and 2 µl of SIRT enzyme (final concentration of 20 nM for 1x SIRT (100% CTL) and 200 nM for 10x SIRT (1000% CTL), dissolved in assay buffer 1) are added by a Multidrop combi. After an incubation time of 20 min at room temperature 4 µl biotinylated ADP-ribose (final concentration 50 nM, dissolved in assay buffer 2) and 4 µl GST tagged macro-domain protein (final concentration 50 nM, dissolved in assay buffer 2) are added by a Multidrop combi. After another incubation time of 60 min at room temperature 4 µl of acceptor beads and 4 µl of donor beads (final concentration of each bead-type 20 µg/ml, both dissolved in assay buffer 2) are added by a Multidrop combi. The plates are then sealed and incubated in the dark at room temperature for at least 30 min. After the incubation period, the plates are measured using the Envision reader from Perkin Elmer.
Assay was performed as described in example 4 (general SOP) besides the fact that instead of ADP-ribose 2'/3'-O-acetyl-ADP-ribose was used for the titration curve.
Assay was performed as described in example 4 (general SOP) employing non-biotinylated ADP-ribose for the titration curve.

[2] = ITC at 25°C, protein 50 µM, nucleotide 500 µM, read-out: KD

Row | SMILES | amount of generated 2'/3'-O-acetyl-ADP-ribose (SIRT1) | -TΔS (GST-tagged AF1521; ITC at 25°C) [kcal/mol] | Kd (GST-tagged AF1521; [2]) [µM] | Kd (GST-tagged AF1521; ITC, read-out: KD value) [µM] | ΔG (GST-tagged AF1521; ITC at 25°C) [kcal/mol] | ΔS (GST-tagged AF1521; ITC at 25°C) | luminescence signal [1] | ΔH (GST-tagged AF1521; change in enthalpy, ITC at 25°C) [kcal/mol]
1 | Cc1ccc(C(=O)Nc2ccc(S(=O)(=O)O)c3cc(S(=O)(=O)O)cc(S(=O)(=O)O)c23)cc1NC(=O)c1cccc(NC(=O)Nc2cccc(C(=O)Nc3cc(C(=O)Nc4ccc(S(=O)(=O)O)c5cc(S(=O)(=O)O)cc(S(=O)(=O)O)c45)ccc3C)c2)c1 [Suramin] | reduces the amount of generated 2'/3'-O-acetyl-ADP-ribose | – | – | – | – | – | – | –
2 | Nc1ncnc2c1ncn2[C@@H]1O[C@H](COP(=O)(O)OP(=O)(O)OC[C@@H](O)[C@@H](O)[C@@H](O)C=NOCC(=O)NCCOCCOCCOCCOCCNC(=O)CCCC[C@@H]2SC[C@@H]3NC(=O)N[C@@H]32)[C@@H](O)[C@H]1O [biotinylated ADP-ribose] | – | 0.383 | 2.55 | 2.5 | -7.64 | -1,3 cal/mol/K | – | –
3 | O=C(Nc1nccs1)c1cccc2ccc(-c3cccc(OC4CCNCC4)c3)nc12 [EX00001253] | reduces the amount of generated 2'/3'-O-acetyl-ADP-ribose | – | – | – | – | – | – | –
4 | Nc1ncnc2c1ncn2[C@@H]1O[C@H](COP(=O)(O)OP(=O)(O)OC[C@H]2OC(O)[C@H](O)[C@@H]2O)[C@@H](O)[C@H]1O (some centres unmarked) [ADP-ribose] | – | – | – | – | – | – | the luminescence signal decreases | –
5 | CC(=O)O[C@@H]1[C@@H](COP(=O)(O)OP(=O)(O)OC[C@H]2O[C@@H](n3cnc4c(N)ncnc43)[C@H](O)[C@@H]2O)OC(O)[C@@H]1O (some centres unmarked) [acetyl ADP-ribose, 2'/3'-O-acetyl-ADP-ribose] | – | -2.271 | 4.14 | – | -7.339 | 7,63 cal/mol/K | the luminescence signal decreases | -5.07
